Measurements as given in patent US9776972B2, “Pyrazole derivatives as arginine methyltransferase inhibitors and uses thereof” (priority 2013, dated 2017).
Read-outs that look alike come from different tables or passages of the source.

Experiments:
[1] = tested on: mono-methyl arginine in RKO cells; assay: RKO Methylation Assay, In Cell Western (ICW) for mono-methyl arginine and DNA content; assay type: cell-based; details: Homo sapiens, RKO, 72 h
Text: RKO adherent cells were purchased from ATCC (American Type Culture Collection), Manassas, Va., USA. DMEM/Glutamax medium, penicillin-streptomycin, heat inactivated fetal bovine serum, 0.05% trypsin and D-PBS were purchased from Life Technologies, Grand Island, N.Y., USA. Odyssey blocking buffer, 800CW goat anti-rabbit IgG (H+L) antibody, and Licor Odyssey infrared scanner were purchased from Licor Biosciences, Lincoln, Nebr., USA. Mono-methyl arginine antibody was purchased from Cell Signaling Technology, Danvers, Mass., USA. Methanol was purchased from VWR, Franklin, Mass., USA. 10% Tween 20 was purchased from KPL, Inc., Gaithersburg, Md., USA. DRAQ5 was purchased from Biostatus Limited, Leicestershire, UK.
RKO adherent cells were maintained in growth medium (DMEM/Glutamax medium supplemented with 10% v/v heat inactivated fetal bovine serum and 100 units/mL penicillin-streptomycin) and cultured at 37° C. under 5% CO2.
Cell Treatment, in Cell Western (ICW) for Detection of Mono-Methyl Arginine and DNA Content.
RKO cells were seeded in assay medium at a concentration of 20,000 cells per mL to a poly-D-lysine coated 384 well culture plate (BD Biosciences 356697) with 50 μL per well. Compound (100 nL) from a 96-well source plate was added directly to 384 well cell plate. Plates were incubated at 37° C., 5% CO2 for 72 hours. After three days of incubation, plates were brought to room temperature outside of the incubator for ten minutes and blotted on paper towels to remove cell media. 50 μL of ice cold 100% methanol was added directly to each well and incubated for 30 min at room temperature. After 30 min, plates were transferred to a Biotek EL406 plate washer and washed 2 times with 100 μL per well of wash buffer (1×PBS). Next 60 μL per well of Odyssey blocking buffer (Odyssey Buffer with 0.1% Tween 20 (v/v)) were added to each plate and incubated 1 hour at room temperature. Blocking buffer was removed and 20 μL per well of primary antibody was added (mono-methyl arginine diluted 1:200 in Odyssey buffer with 0.1% Tween 20 (v/v)) and plates were incubated overnight (16 hours) at 4° C. Plates were washed 5 times with 100 μL per well of wash buffer. Next 20 μL per well of secondary antibody was added (1:200 800CW goat anti-rabbit IgG (H+L) antibody, 1:1000 DRAQ5 (Biostatus limited) in Odyssey buffer with 0.1% Tween 20 (v/v)) and incubated for 1 hour at room temperature. The plates were washed 5 times with 100 μL per well wash buffer then 2 times with 100 μL per well of water. Plates were allowed to dry at room temperature then imaged on the Licor Odyssey machine which measures integrated intensity at 700 nm and 800 nm wavelengths. Both 700 and 800 channels were scanned.
First, the ratio for each well was determined by:
Each plate included fourteen control wells of DMSO only treatment (minimum activation) as well as fourteen control wells for maximum activation treated with 20 μM of a reference compound. The average of the ratio values for each control type was calculated and used to determine the percent activation for each test well in the plate. Reference compound was serially diluted three-fold in DMSO for a total of nine test concentrations, beginning at 20 μM. Percent activation was determined and EC30 curves were generated using triplicate wells per concentration of compound.

[2] = target: T1, human PRMT6 (Homo sapiens, UniProt Q96LA8); assay: PRMT6 Biochemical Assay (3H-SAM Flashplate, peptide substrate); details: Biochemical IC50 PRMT6, single experiment or average of multiple experiments
T1 construct: Flag-PRMT6-His; made in house; host or cells: HEK 293F cells (BacMam baculovirus)
T1 sequence (Q96LA8 with tags, fused parts or gaps): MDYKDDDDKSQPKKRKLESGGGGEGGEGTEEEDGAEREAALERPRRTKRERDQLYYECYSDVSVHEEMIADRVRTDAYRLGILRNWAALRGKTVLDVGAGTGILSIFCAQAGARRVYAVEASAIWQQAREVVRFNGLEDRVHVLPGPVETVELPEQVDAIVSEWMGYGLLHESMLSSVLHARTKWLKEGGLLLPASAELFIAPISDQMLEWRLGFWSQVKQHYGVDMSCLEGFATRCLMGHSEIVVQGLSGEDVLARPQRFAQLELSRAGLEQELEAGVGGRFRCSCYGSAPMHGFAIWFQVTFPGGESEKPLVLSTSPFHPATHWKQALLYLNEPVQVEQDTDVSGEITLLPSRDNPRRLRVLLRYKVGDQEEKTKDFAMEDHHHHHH
Text: S-adenosylmethionine (SAM), S-adenosylhomocysteine (SAH), bicine, Tween20, dimethylsulfoxide (DMSO), bovine skin gelatin (BSG), sodium butyrate and Tris(2-carboxyethyl)phosphine hydrochloride solution (TCEP) were purchased from Sigma-Aldrich at the highest level of purity possible. ^3H-SAM was purchase from American Radiolabeled Chemicals with a specific activity of 80 Ci/mmol. 384-well streptavidin Flashplates were purchased from PerkinElmer.
Peptide representative of human histone H4 residues 36-50 was synthesized with an N-terminal linker-affinity tag motif and a C-terminal amide cap by 21st Century Biochemicals.
The amplified gene was subcloned into pFastBacMam (Viva Biotech).
Recombinant baculovirus were generated according to Bac-to-Bac kit instructions (Life Technologies). […] Infections were carried out at 37° C. for 48 hours, harvested by centrifugation, and stored at −80° C. for purification.
Column was washed with 20 mM imidazole in the same buffer and Flag-PRMT6-His was eluted with 150 mM imidazole. […] Flag-PRMT6-His was eluted with 200 ug/ml FLAG peptide in the same buffer. Pooled fractions were dialysed in 20 mM Tris, 150 mM NaCl, 10% glycerol and 5 mM β-mercaptoethanol, pH 7.8.
General Procedure for PRMT6 Enzyme Assays on Peptide Substrates.
The assays were all performed in a buffer consisting of 20 mM Bicine (pH=7.6), 1 mM TCEP, 0.005% BSG, and 0.002% Tween 20, prepared on the day of use. […] DMSO (1 ul) was added to Columns 11, 12, 23, 24, rows A-H for the maximum signal control and 1 ul of SAH, a known product and inhibitor of PRMT6, was added to columns 11, 12, 23, 24, rows I-P for the minimum signal control. A cocktail (40 ul) containing the PRMT6 enzyme was added by Multidrop Combi (Thermo-Fisher). The compounds were allowed to incubate with PRMT6 for 30 min at room temperature, then a cocktail (10 ul) containing SAM and peptide was added to initiate the reaction (final volume=51 ul). […] The assays were stopped by the addition of non-radiolabeled SAM (10 ul) to a final concentration of 400 uM, which dilutes the ^3H-SAM to a level where its incorporation into the peptide substrate is no longer detectable. 50 ul of the reaction in the 384-well polypropylene plate was then transferred to a 384-well Flashplate and the biotinylated peptides were allowed to bind to the streptavidin surface for at least 1 hour before being washed once with 0.1% Tween20 in a Biotek ELx405 plate washer. The plates were then read in a PerkinElmer TopCount plate reader to measure the quantity of ^3H-labeled peptide bound to the Flashplate surface, measured as disintegrations per minute (dpm) or alternatively, referred to as counts per minute (cpm).
Where dpm=disintegrations per minute, cmpd=signal in assay well, and min and max are the respective minimum and maximum signal controls.
Where top and bottom are the normally allowed to float, but may be fixed at 100 or 0 respectively in a 3-parameter fit. The Hill Coefficient normally allowed to float but may also be fixed at 1 in a 3-parameter fit. Y is the % inhibition and X is the compound concentration.

[3] = RKO cells, 72 hours, mono-methyl arginine, percent activation, single experiment or average of multiple experiments, read-out: EC30 (In Cell Western data, Numerical)
[4] = read-out: EC30 (In Cell Western data, Numerical, μM)

Row | SMILES | EC30 [1, 3] [µM] | IC50 [2] [nM] | EC30 [1, 4] [µM]
1 | COCCn1ncc(CN(C)CCN)c1-c1ccc(F)cc1 [Compound 6] | > 20 | 312 | –
2 | CCn1ncc(CN(C)CCNC)c1-c1ccc(F)cc1 [Compound 7] | 5.76 | 38.3 | –
3 | CCn1cc(CN(C)CCNC)c(-c2ccc(F)cc2)n1 [Compound 8] | > 20 | 287 | –
4 | CN(CCN)Cc1c[nH]nc1-c1ccc(OCC(F)(F)F)cc1 [Compound 96] | 0.92 | 7.09 | –
5 | CC(C)Oc1ccc(-c2n[nH]cc2CN(C)CCN)cc1F [Compound 97] | – | 7.35 | 0.184
6 | CN(CCN)Cc1c[nH]nc1-c1ccc(C2CCOCC2)cc1 [Compound 98] | 2.85 | 15.4 | –
7 | CN(CCN)Cc1c[nH]nc1-c1ccc(F)cc1F [Compound 99] | 11.8 | 27.9 | –
8 | CN(CCN)Cc1n[nH]cc1-c1ccc(C#N)cc1 [Compound 100] | 2.98 | 11.2 | –
9 | CC(C)c1ccc(-c2c[nH]nc2CN(C)CCN)cc1 [Compound 101] | – | 136 | 5.99
10 | CN(CCN)Cc1n[nH]cc1-c1ccc(Cl)cc1 [Compound 102] | 2.32 | 9.02 | –
11 | CN(CCN)Cc1n[nH]cc1-c1ccc(C(F)(F)F)cc1 [Compound 103] | 3.67 | 17 | –
12 | CN(CCN)Cc1n[nH]cc1-c1ccc(C2CC2)cc1 [Compound 104] | 3.92 | 45.3 | –
13 | CN(CCN)Cc1n[nH]cc1-c1ccc(OC(F)(F)F)cc1 [Compound 105] | 2.28 | 55.6 | –
14 | COc1ccc(-c2n[nH]cc2CN(C)CCN)c(F)c1 [Compound 107] | – | 15 | –
15 | Cc1ccc(-c2n[nH]cc2CN(C)CCN)c(F)c1 [Compound 108] | – | 9.49 | –
16 | COc1ccccc1-c1n[nH]cc1CN(C)CCN [Compound 109] | – | 217 | –
17 | Cc1cc(C#N)ccc1-c1n[nH]cc1CN(C)CCN [Compound 110] | – | 16.5 | –
18 | CN(CCN)Cc1c[nH]nc1-c1cc(F)cc(F)c1 [Compound 111] | – | 11.8 | –
19 | CC(=O)c1cccc(-c2n[nH]cc2CN(C)CCN)c1 [Compound 112] | – | 84.7 | –
20 | CN(CCN)Cc1c[nH]nc1-c1ccc(OC2CC2)cc1 [Compound 114] | 0.607 | 16.2 | –
21 | CC(O)c1ccc(-c2n[nH]cc2CN(C)CCN)cc1 (stereo not drawn) [Compound 115] | – | 25.4 | –
22 | CN(CCN)Cc1c[nH]nc1-c1ccc(C2CC2)cc1 [Compound 116] | 1.41 | 7.3 | –
23 | CN(CCN)Cc1c[nH]nc1-c1ccc(C(F)(F)F)c(Cl)c1 [Compound 117] | 1.29 | 4.87 | –
24 | CN(CCN)Cc1c[nH]nc1-c1ccc(Cl)c(F)c1 [Compound 118] | 0.314 | 3.18 | –

Row | SMILES | EC30 [1, 3] [µM] | IC50 [2] [nM] | EC30 [1, 4] [µM]
25 | CN(CCN)Cc1n[nH]cc1-c1ccc(OC2CC2)cc1 [Compound 119] | 4.54 | 88 | –
26 | CN(CCN)Cc1c[nH]nc1-c1cc(F)cc(Cl)c1 [Compound 121] | 2.07 | 7.48 | –
27 | CN(CCN)Cc1c[nH]nc1-c1cccc(Cl)c1 [Compound 122] | 3.48 | 8.99 | –
28 | CN(CCN)Cc1c[nH]nc1-c1cccc(Cl)c1F [Compound 123] | 2.96 | 17.1 | –
29 | CN(CCN)Cc1c[nH]nc1-c1ccc(F)c(Cl)c1 [Compound 124] | 1.23 | 7.15 | –
30 | COc1ccc(-c2n[nH]cc2CN(C)CCN)cc1Cl [Compound 125] | – | 6.65 | 1.57
31 | Cc1ccc(-c2n[nH]cc2CN(C)CCN)cc1Cl [Compound 126] | 1.23 | 4.94 | –
32 | COc1cc(Cl)cc(-c2n[nH]cc2CN(C)CCN)c1 [Compound 127] | 7.01 | 14.1 | –
33 | Cc1c(F)cccc1-c1n[nH]cc1CN(C)CCN [Compound 129] | 7.38 | 52.8 | –
34 | COc1cccc(-c2n[nH]cc2CN(C)CCN)c1 [Compound 130] | 3.92 | 63.4 | –
35 | Cc1cccc(-c2n[nH]cc2CN(C)CCN)c1 [Compound 131] | 2.56 | 12.1 | –
36 | CN(CCN)Cc1c[nH]nc1-c1ccc(Cl)cc1F [Compound 132] | – | 9.91 | 2.4
37 | Cc1cc(Cl)ccc1-c1n[nH]cc1CN(C)CCN [Compound 133] | 2.91 | 10.1 | –
38 | COc1ccc(-c2n[nH]cc2CN(C)CCN)cc1F [Compound 134] | 1.09 | 10.8 | –
39 | CN(CCN)Cc1c[nH]nc1-c1ccc(C(F)(F)F)cc1Cl [Compound 135] | 8.05 | 28.9 | –
40 | CCNC(=O)c1ccc(-c2n[nH]cc2CN(C)CCN)cc1 [Compound 136] | > 20 | 12.8 | –
41 | CN(CCN)Cc1c[nH]nc1-c1cc(Cl)cc(Cl)c1 [Compound 137] | 4.18 | 8.42 | –
42 | CN(CCN)Cc1n[nH]cc1-c1ccc(OC(F)F)cc1 [Compound 138] | 2.28 | 44.5 | –
43 | CN(CCN)Cc1c[nH]nc1-c1ccccc1C#N [Compound 140] | > 20 | 3010 | –
44 | CN(CCN)Cc1c[nH]nc1-c1ccc(C(F)(F)F)c(F)c1 [Compound 141] | 0.583 | 7.79 | –
45 | COc1cc(-c2n[nH]cc2CN(C)CCN)ccc1F [Compound 142] | 2.1 | 16.2 | –
46 | CCN(CC)C(=O)c1ccc(-c2n[nH]cc2CN(C)CCN)cc1 [Compound 143] | > 20 | 107 | –
47 | CC(C)Oc1ccc(-c2c[nH]nc2CN(C)CCN)cc1F [Compound 144] | 0.284 | 49.1 | –
